Experimental data from patent US4935505A, “Novel azolo [1,3] diazepine-5-ol compounds and their uses” (priority 1988, dated 1990).
Where two headings read alike, the source gives them in different places.

Experiments:
adenosine deaminase = adenosine deaminase (Homo sapiens, UniProt P00813); assay: Inhibition of adenosine deaminase (ADA), adenosine as substrate, purified enzyme; format: biochemical
From the text: The mixture of the R and S isomers of the 4,5,6-trihydro-1-(β-D-ribofuranosyl) pyrazolo [5,4-d]

[1] = test system: human erythrocytic adenosine deaminase; conditions: cited from earlier work
[2] = clinical trials; cited from earlier work
[3] = Inhibition of Adenosine Deaminase by Target Compounds, adenosine as substrate, purified enzyme, read-out: Ki

adenosine deaminase, sequence (P00813 whole entry): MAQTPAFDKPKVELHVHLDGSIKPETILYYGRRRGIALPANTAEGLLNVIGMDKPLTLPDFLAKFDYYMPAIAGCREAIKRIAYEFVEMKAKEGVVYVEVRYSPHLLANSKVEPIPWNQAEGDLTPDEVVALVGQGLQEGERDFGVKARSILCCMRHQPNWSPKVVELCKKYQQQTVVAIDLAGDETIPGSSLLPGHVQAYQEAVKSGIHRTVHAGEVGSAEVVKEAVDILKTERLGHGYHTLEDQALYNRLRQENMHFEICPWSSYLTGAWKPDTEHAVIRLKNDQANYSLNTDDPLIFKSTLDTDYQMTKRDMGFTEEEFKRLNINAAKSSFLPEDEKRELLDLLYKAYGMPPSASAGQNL

Structure (SMILES): OC[C@H]1O[C@@H](n2nnc3c2N=CNC[C@@H]3O)[C@H](O)[C@@H]1O [37 (S), 6,7,8-Trihydro-3-β-D-ribofuranosyl-v-triazole [4,5-d] [1,3] diazepin-8(R,S)-ol]
- Ki (adenosine deaminase; [3]): 85 µM

Structure (SMILES): OC[C@H]1O[C@@H](n2cnc3c2N=CNC[C@H]3O)[C@H](O)[C@@H]1O [2, coformycin, reference compound]
- tight binding inhibition [1]: exceedingly tight binding inhibitors
- Ki (adenosine deaminase): 0.00012 µM

Structure (SMILES): OC[C@H]1O[C@@H](n2nnc3c2N=CNC[C@H]3O)[C@H](O)[C@@H]1O [4 (R), 6,7,8-Trihydro-3-β-D-ribofuranosyl-v-triazole [4,5-d] [1,3] diazepin-8(R,S)-ol]
- Ki (adenosine deaminase; Preliminary estimates based on conventional kinetic analysis, adenosine as substrate, purified enzyme, read-out: Ki): 0.002 µM
- type of inhibition of ADA (adenosine deaminase; adenosine as substrate, purified enzyme, listed as Compound 4): very tight-bindinginhibitor
- type of inhibition of ADA (adenosine deaminase; adenosine as substrate, purified enzyme, listed as compound 4): potent tight-binding inhibitor

Structure (SMILES): OC[C@H]1O[C@@H](n2ncc3c2N=CNCC3O)[C@H](O)[C@@H]1O (mixture of isomers) [(3 + 26), 4,5,6-Tihydro-1-(β-D-ribofuranosyl)pyrazolo [5,4-d]-[1,3] diazepin-4(R,S)-ol]
- Ki (adenosine deaminase; [3]): 2 µM

Structure (SMILES): OC[C@H]1O[C@@H](n2cnc3c2NC=NC[C@H]3O)C[C@@H]1O [pentostatin, 8(R)-3-(2-deoxy-β-D-erythro-pentofuranosyl)-3,6,7,8-tetrahydroimidazo[4,6-d][1,3]diazepin-8-ol]
- tight binding inhibition [1]: exceedingly tight binding inhibitors
- acute renal toxicity [2]: acute renal toxicity
